Measurements reported in patent US10583119B2, “Compounds, compositions and methods for making the same” (Signum Biosciences, Inc., priority 2008, dated 2020).
pEC50, pIC50: −log10 of the molar value. Values belong to the compound of their own block, whether it stands above or below them.

Legend:
phosphorylated Tau = experiment: Phosphorylated tau in vivo at four weeks (pS396 Western blot of brain); design: species or system mice; settings: 0.1% in chow, phospho-Serine 396
Experimental: Swiss Webster mice (9-12 weeks old) were fed ad libitum, either standard rodent chow (Control), or rodent chow formulated with 0.1 g Compound I-63 per 100 g chow (0.1% Compound I-63) or 0.1 g Compound I-62 per 100 g chow (0.1% Compound I-62); water was changed weekly. Mice were housed at 23° C., on a 12 hour light and dark cycle, with 6 mice per cage. At 4 weeks, six mice from the Control, 0.1% Compound I-63 and 0.1% Compound I-62 groups were sacrificed by cervical dislocation, brains removed, snap-frozen in liquid nitrogen, and stored at −80° C. Brains were homogenized in 350 pi of buffer containing 20 mM MOPS-Na, pH 7.2, 1 mM EDTA/DTT, 0.5 mg/L of aprotinin, leupeptin and pepstatin, 100 nM okadaic acid, and clarified by centrifugation (14000 rpm, 10 min, 4° C.). Supernatant protein concentrations were measured by the Bradford method, 4 volumes of the supernatant and 1 volume of 5×SDS sample buffer were mixed and boiled for 2 minutes. Boiled homogenate ([…]) were loaded on 12% polyacrylamide gels, and transferred to nitrocellulose membranes. […] Protein bands were detected with the ECL Plus reagent (GE Healthcare) and blots scanned on a Molecular Dynamics Storm Imager. […]

[1] = target: T1, protein phosphatase 2A specific methyltransferase (MTase) (Homo sapiens, UniProt Q9UIC8); experiment: PP2A methylation in 96-well plate format (methyltransferase activity); format: biochemical; settings: purified PP2A, MTase and [3H]-SAM; read-out: MT (IC50)
T1 construct: His; made in house
T1 sequence (Q9UIC8 whole entry): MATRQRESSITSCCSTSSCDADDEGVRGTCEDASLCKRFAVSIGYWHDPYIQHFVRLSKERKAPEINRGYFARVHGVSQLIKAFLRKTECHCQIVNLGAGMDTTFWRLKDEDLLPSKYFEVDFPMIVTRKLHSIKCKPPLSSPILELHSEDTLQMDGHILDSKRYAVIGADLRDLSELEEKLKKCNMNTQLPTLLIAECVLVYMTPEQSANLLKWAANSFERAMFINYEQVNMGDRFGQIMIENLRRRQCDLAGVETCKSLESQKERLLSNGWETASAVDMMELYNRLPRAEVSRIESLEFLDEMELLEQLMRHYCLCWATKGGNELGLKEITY
Experimental: Purified PP2A, MTase and [^3H]-SAM, were incubated in reaction buffer at 37° C. At the end of the reaction, mixture was added onto the membranes of 96-well filter plate (Multiscreen™, Millipore). The membranes were then pre-wetted with 70% ethanol (50 μL/well) and then subsequently washed with water (2×200 μL/well). The reaction in each well was terminated and the proteins (5 μL-20 μL) were precipitated by adding 25% ice-cold TCA. The plate was kept on ice for 30 minutes to ensure completion of protein precipitation. Excess of the free SAM was then removed by washing with 5% cold TCA ([…]) and 70% cold ethanol (2×100 μL/well). Membranes were air-dried, radioactivity in each well was counted by TopCount^NXT scintillation counter (Packard) with 25 μL/well of Microsinct™ 20 (PerkinElmer).

PP2A [2] = target: T2, PP2A (Homo sapiens, UniProt P67775); experiment: Phosphatase activity of PP2A using pNPP as substrate; format: biochemical; settings: un-methylated PP2A, non-protein substrate pNPP, absence of ME and MT
T2 construct: made in house
T2 sequence (P67775 whole entry): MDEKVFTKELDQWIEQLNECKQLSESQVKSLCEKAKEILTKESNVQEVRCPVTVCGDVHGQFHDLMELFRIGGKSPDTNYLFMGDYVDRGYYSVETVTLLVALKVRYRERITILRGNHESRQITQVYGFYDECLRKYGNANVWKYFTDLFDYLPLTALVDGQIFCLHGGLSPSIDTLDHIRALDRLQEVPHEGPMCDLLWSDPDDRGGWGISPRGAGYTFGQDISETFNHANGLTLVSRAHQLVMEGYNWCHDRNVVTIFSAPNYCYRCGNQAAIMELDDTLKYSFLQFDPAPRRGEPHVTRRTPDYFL
T2 sequence (P30153 whole entry partner): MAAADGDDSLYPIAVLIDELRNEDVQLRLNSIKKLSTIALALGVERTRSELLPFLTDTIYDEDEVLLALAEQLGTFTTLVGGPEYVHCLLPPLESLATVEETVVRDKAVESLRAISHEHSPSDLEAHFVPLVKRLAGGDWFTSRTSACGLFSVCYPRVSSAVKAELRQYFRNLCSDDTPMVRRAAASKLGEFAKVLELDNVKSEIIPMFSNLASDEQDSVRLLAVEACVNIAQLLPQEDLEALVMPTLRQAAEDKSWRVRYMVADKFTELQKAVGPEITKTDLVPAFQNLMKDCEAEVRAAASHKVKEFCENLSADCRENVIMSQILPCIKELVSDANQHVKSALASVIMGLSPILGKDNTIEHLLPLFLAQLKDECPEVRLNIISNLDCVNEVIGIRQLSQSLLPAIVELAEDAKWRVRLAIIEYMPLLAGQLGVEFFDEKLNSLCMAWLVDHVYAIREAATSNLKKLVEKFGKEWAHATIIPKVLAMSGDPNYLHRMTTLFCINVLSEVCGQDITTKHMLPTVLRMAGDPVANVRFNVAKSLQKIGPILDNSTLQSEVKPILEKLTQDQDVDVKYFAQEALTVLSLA
Experimental: PP2A (10-200 nM) and pNPP (5-10 mM, Sigma) were mixed into 96-well plate (Fisher Scientific Inc.) in 50 μL of the buffer required. Reactions were performed at room temperature, and fully stopped by adding equal volume of 0.1 M EDTA. Production of p-nitrophenol […] was quantified by absorbance of reaction mixtures at 405 nm using the VMax® microplate reader (Molecular Devices).

[3] = target: T3, protein phosphatase specific protein methylesterase (MEase) (Homo sapiens, UniProt Q9Y570); experiment: PP2A demethylation with [3H]-SAM and purified proteins (methylesterase activity); format: biochemical; settings: purified methylated PP2A and MEase; read-out: ME (IC50)
T3 construct: made in house
T3 sequence (Q9Y570 1-386): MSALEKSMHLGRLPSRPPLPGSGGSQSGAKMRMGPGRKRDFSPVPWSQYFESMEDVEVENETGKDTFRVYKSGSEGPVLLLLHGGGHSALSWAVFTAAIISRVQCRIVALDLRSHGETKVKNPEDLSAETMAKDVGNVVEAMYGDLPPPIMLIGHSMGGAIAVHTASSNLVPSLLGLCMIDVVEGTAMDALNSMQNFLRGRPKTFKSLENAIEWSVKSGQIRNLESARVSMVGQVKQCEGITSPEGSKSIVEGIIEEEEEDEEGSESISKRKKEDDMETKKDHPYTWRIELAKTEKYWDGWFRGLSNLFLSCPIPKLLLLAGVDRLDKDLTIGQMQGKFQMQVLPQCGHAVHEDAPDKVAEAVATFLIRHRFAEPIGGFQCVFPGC
Experimental: PP2A (methylated and unmethylated) were eluted with 1.6 mL of Buffer A containing 350 mM NaCl. Fractions (0.2 mL each) were collected and the radioactivity in each fraction was measured using the scintillation counter (LS 6000SE, Beckman). Fractions with highest radioactivity were containing purified methylated PP2A were pooled with a total volume of 0.6 mL-0.8 mL. Purified methylated PP2A (50 nM-100 nM) was incubated with MEase (5 nM-20 nM) in 20 μl-50 μl reaction at room temperature for 30 minutes. The reaction was terminated by adding TCA (2 μl-6 μl) to a final concentration of 10%. Released [^3H]-methanol in supernatants was counted with scintillation counter (LS 6000SE, Beckman).

PP2A [4] = target: T2, PP2A; experiment: Phosphatase activity of PP2A using phosphorylase a as substrate; format: biochemical; settings: un-methylated PP2A, protein substrate phosphorylase a, absence of ME and MT
Experimental: After the reaction, proteins were precipitated by 50% (NH4)2SO4 (final concentration) twice, and collected by centrifugation. The pellet was re-dissolved and dialyzed in a buffer containing 50 mM Tris-HCl (pH6.9) and ImM DTT for 2×2 L at 4° C. overnight. Phosphorylase a (phospho-phosphorylase b) crystallized during the dialysis. The dialysate was centrifuged 14,000 r.p.m at 4° C. for 30 minutes, the supernatant was removed and purified ^32P-labelled phosphorylase a was re-dissolved in +50% glycerol, and stored at −20° C.
To measure PP2A's phosphatase activity, PP2A (5-20 nM) was incubated with phosphorylase a (5-10 μM) at 37° C. 10% TCA (final concentration) and was added to the reaction to precipitate proteins. Supernatant that contains free ^32P-phosphate group was added into scintillation counting solution (Ecoscint, National Diagnostics), and counted by scintillation counter (LS 6000SE, Beckman).

Ob/Ob Mice = experiment: Non-fasted glucose levels in ob/ob mice; format: in vivo; settings: homozygous obese mice, compound in diet for 14 days
Description: They are also hypometabolic and hypothermic. The obesity is characterized by an increase in both the number and the size of adipocytes. Although hyperphagia contributes to the obesity, homozygotes gain excess weight and deposit excess fat even when restricted to a diet sufficient for normal weight maintenance in lean mice. Mice heterozygous for the Lep^ob mutation appear like wild-type and are lean.
Forty-eight (48) B6.V-Lep^ob/J mice (00632, The Jackson Laboratory, JAX^6 mice), homozygous for the Lep^ob mutation and thirty six (36) controls B6.V-Lep^ob/J-lean, heterozygous for the Lep^ob mutation were used to study the effect of SIG1012 on non-fasted glucose levels. The mice were ear notched for identification and housed in individually and positively ventilated polycarbonate cages with HEPA filtered air at a density of 3 mice per cage. Bed-o-cob corn cob bedding was used and cages were changed every two weeks. The animal room was lighted entirely with artificial fluorescent lighting, with a controlled 12 h light/dark cycle (7 am to 7 pm light). The normal temperature and relative humidity ranges in the animal rooms were 22±4° C. and 50±15%, respectively. The animal rooms were set to have 15 air exchanges per hour. Filtered tap water, acidified to a pH of 2.8 to 3.2, and LabDiet AIN-76A was provided ad libitum.
Following acclimation, mice were assigned to groups A through G according to their body weight and genotype:
A Lean heterozygotes—B6.V-Lep^ob/J-lean Mice Fed Control Diet (AIN-76A);
B Lean heterozygotes—B6.V-Lep^ob/J-lean Mice Fed “Low” Compound I-63 (AIN-76A with 0.001% Compound I-63);
C Lean heterozygotes—B6.V-Lep^ob/J-lean Mice Fed “Medium” Compound I-63 (AIN-76A with 0.1% Compound I-63);
D Obese homozygotes—B6. V-Lep^ob/J Mice Fed Control Diet (AIN-76A);
E Obese homozygotes—B6N-Lep^ob/J Mice Fed “Low” Compound I-63 (AIN-76A with 0.001% Compound I-63); […]
Mice from Groups A through G were maintained on the respective diet for 14 days and blood glucose levels were measured weekly.

[5] = test system: alpha-synuclein phosphorylated at Ser129; experiment: Effect of PP2A methylation on alpha-synuclein dephosphorylation; format: biochemical, human
Experimental: Concentrated samples of the methylated and unmethylated AC dimer of PP2A were each serially diluted to final concentrations of 200 nM, 100 nM, 50 nM, 25 nM, and 12 nM. A buffer sample (with 0 nM PP2A) was used as the negative control. The dephosphorylation assay and western blotting were performed as described above in Example 31 Western blots were scanned on a Storm Scanner (Molecular Dynamics) and band intensities quantified with Image Quant software. The relative phosphorylation levels were calculated with the following formula: Relative phosphorylation level (%)=Signal of Sample/Signal of Negative Control*100%. Regression curves of relative phosphorylation levels as a function of PP2A concentration were plotted, and the EC50 values for methylated and unmethylated PP2A were estimated using the SigmaPlot program. The EC50 is a measure of phosphatase activity or dephosphorylation activity of PP2A toward phosphorylated alpha-synuclein. Specifically, it is the concentration of the AC dimer required to achieve 50% dephosphorylation of phosphorylated alpha-synuclein. […] Specifically, methylation reduces the EC50 value of PP2A AC dimer from ˜60 nM to ˜20 nM.

[6] = test system: serine 129 phosphorylated alpha-synuclein; experiment: Dephosphorylation assay of human alpha-synuclein by PP2A and PP1; format: biochemical; settings: Western blot
Experimental: Dephosphorylation Assay of Human a Synuclein by PP2A and PP1. […] PP2A or PP1 (serial dilutions of 200 nM, 100 nM, 50 nM, 25 nM, 12 nM, and O nM as a negative control) were incubated with serine 129 phosphorylated alpha-synuclein in MOPS buffer. The reactions were stopped by adding 5×SDS sample buffer. Levels of phosphorylated-alpha-synuclein were assessed by western blotting using an anti-phospho-Ser 129 antibody. […] Specifically, at 200 nM concentration, PP2A dephosphorylates more than 95% of the serine 129 phosphorylated alpha-synuclein.

pIC50 [1]: 4.00 to 5.00 | pIC50 (PP2A [2]): 4.00 to 5.00 | pIC50 [3]: 4.00 to 5.00 | pIC50 (PP2A [4]): < 4.00
Compound: CCCCCCCCCCCCCCCCCCCCCC(=O)NCCc1c[nH]c2ccc(O)cc12 [Compound I-62, N-(2-(5-hydroxy-1H-indol-3-yl)ethyl)docosanamide]
lowering of phosphorylated tau levels in the brain compared to control (phosphorylated Tau): 40%

Compound: CN(CCOc1ccc(CC2SC(=O)NC2=O)cc1)c1ccccn1 (stereo not shown) [Rosiglitizone, reference compound]
reduction in non-fasted blood glucose levels (Ob/Ob Mice): 66%

pEC50 ([5]; methylated AC dimer): ~7.70 | pEC50 ([5]; unmethylated AC dimer): ~7.22
Compound: PP2A: Protein phosphatase 2A, AC dimer (unmethylated or methylated), used as the enzyme dephosphorylating alpha-synuclein
dephosphorylation of serine 129 phosphorylated alpha-synuclein ([6]; 200 nM phosphatase): more than 95% | dephosphorylation of phosphorylated alpha-synuclein (concentration dependence) ([6]; 12-200 nM phosphatase): concentration dependent manner
